In paper doi:10.1101/472670v4 (biorxiv, 2019):

How the values were obtained:
[1] = target: T1, PTP1B (human recombinant, kit BML-AK822) (Homo sapiens, UniProt P18031); assay: colorimetric malachite green; assay type: biochemical; conditions: read-out: % inhibition at 10 µM
T1 sequence (P18031 1-322 limits assumed): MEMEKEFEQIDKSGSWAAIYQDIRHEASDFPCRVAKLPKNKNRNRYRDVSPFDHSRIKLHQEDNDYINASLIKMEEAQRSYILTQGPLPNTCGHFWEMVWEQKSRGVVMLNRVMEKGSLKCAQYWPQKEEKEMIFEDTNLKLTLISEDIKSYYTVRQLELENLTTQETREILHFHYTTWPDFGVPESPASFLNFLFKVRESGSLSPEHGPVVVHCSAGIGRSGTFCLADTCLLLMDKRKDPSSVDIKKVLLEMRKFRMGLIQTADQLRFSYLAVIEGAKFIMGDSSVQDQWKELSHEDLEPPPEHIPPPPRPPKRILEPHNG

[2] = target: T1, PTP1B (human recombinant, kit BML-AK822); assay: biochemical; conditions: read-out: % inhibition at 10 µM
[3] = target: T1, PTP1B (human recombinant, kit BML-AK822); assay: colorimetric malachite green; assay type: biochemical
[4] = target: T1, PTP1B (human recombinant, kit BML-AK822); assay: Lineweaver-Burk with slope replot; assay type: biochemical

Row | Compound | inhibition at 10 µM [1] [%] | inhibition at 10 µM [2] [%] | IC50 [3] [µM] | Ki [4] [µM]
1 | COc1ccc(C(=O)N(C2=NCCS2)c2ccccc2C(F)(F)F)cc1 [II, compound II] | 48 | – | – | –
2 | Cc1ccc(-c2csc(N(C(=O)c3ccc(Cl)cc3)c3ccc(F)cc3)n2)cc1 [compound 15] | 35.2 | – | – | –
3 | Cc1ccc(-c2csc(N(C(=O)CCc3ccccc3)c3ccc(F)cc3)n2)cc1 [compound 16] | 33 | – | – | –
4 | Cc1ccc(-c2csc(N(C(=O)Cc3ccccc3)c3ccc(F)cc3)n2)cc1 [compound 17] | – | 60.3 | – | –
5 | COc1ccc(-c2csc(N(C(=O)c3ccc(Cl)cc3)c3ccc(F)cc3)n2)cc1 [compound 18] | – | 56.9 | 8.8 | –
6 | COc1ccc(-c2csc(N(C(=O)CCc3ccccc3)c3ccc(F)cc3)n2)cc1 [compound 19] | – | 74.7 | – | –
7 | O=C(c1ccc(Cl)cc1)N(c1ccc(F)cc1)c1nc(-c2ccccc2)cs1 [compound 21] | 37.2 | – | – | –
8 | O=C(CCc1ccccc1)N(c1ccc(F)cc1)c1nc(-c2ccccc2)cs1 [compound 22] | – | 69 | – | –
9 | COc1ccc(CCN(C(=O)CCc2ccccc2)c2nc(-c3ccc(OC)cc3)cs2)cc1 [compound 37] | – | 69.9 | 6.9 | –
10 | COc1ccc(CCN(C(=O)Cc2ccccc2)c2nc(-c3ccc(OC)cc3)cs2)cc1 [compound 38] | – | 76.6 | 5.8 | 8.59
